Data published in patent US8124623B2, “5-hydroxymethyl-oxazolidin-2-one-derivatives and their uses as antibacterials” (Actelion Pharmaceuticals Ltd., priority 2006, dated 2012).
Values after ≈ are worked out from the molar mass of the structure shown. Where two headings read alike, the source gives them in different places.

Assays:
[1] = system: S. aureus A798; assay: MIC, broth microdilution (NCCLS); format: cell-based; conditions: for MIC: Staphylococcus aureus
Experimental: These assays have been performed following the description given in “Methods for dilution Antimicrobial Susceptibility Tests for Bacteria that Grow Aerobically, 4th ed.; Approved standard: NCCLS Document M7-A4; National Committee for Clinical Laboratory Standards Villanova, Pa., USA, 1997”. Minimal inhibitory concentrations (MICs; mg/l) were determined in cation-adjusted Mueller-Hinton Broth (BBL) by a microdilution method following NCCLS guidelines (National Committee for Clinical Laboratory Standards. Methods for Dilution Antimicrobial Susceptibility). The pH1 of the test medium was 7.2-7.3. In the particular case wherein the compound to be tested is a compound of formula IPDc wherein at least one of R^1 and R^2 represents OPO3H2, then the test was carried out in the presence of human alkaline phosphatase (concentration: 1 U/mL). In the particular case wherein the compound to be tested is a compound of formula IPDG wherein R^1 represents a group OCOR^5, then the test may be carried out in the presence of 50% human serum.

[2] = system: C. difficile ATCC 9689; assay: MIC, anaerobic broth microdilution, reference strains; format: cell-based, Clostridium difficile; conditions: Clostridioides difficile, ATCC9689, 48 h, read-out: MIC regarding C. difficile ATCC 9689
[3] = system: C. perfringens DSM 756; assay: microbe, parasite or virus in culture; format: cell-based; conditions: Clostridium perfringens, DSM756, 48 h, read-out: MIC regarding C. perfringens DSM 756
[4] = system: C. difficile NC 13366; assay: MIC, anaerobic broth microdilution, reference strains; format: cell-based, Clostridium difficile; conditions: Clostridioides difficile, NC13366, 48 h, read-out: MIC regarding C. difficile NC 13366
[5] = system: C. difficile ATCC 43596; assay: as above; format: cell-based, Clostridium difficile; conditions: Clostridioides difficile, ATCC43596, 48 h, read-out: MIC regarding C. difficile ATCC 43596
[6] = system: S. Pneumoniae 49619; assay: MIC, broth microdilution (NCCLS); format: cell-based
Experimental: (§1) These assays have been performed following the description given in “Methods for dilution Antimicrobial Susceptibility Tests for Bacteria that Grow Aerobically, 4th ed.; Approved standard: NCCLS Document M7-A4; National Committee for Clinical Laboratory Standards Villanova, Pa., USA, 1997”. Minimal inhibitory concentrations (MICs; mg/l) were determined in cation-adjusted Mueller-Hinton Broth (BBL) by a microdilution method following NCCLS guidelines (National Committee for Clinical Laboratory Standards. Methods for Dilution Antimicrobial Susceptibility). The pH1 of the test medium was 7.2-7.3.

[7] = system: M. catarrhalis A894; assay: MIC, broth microdilution (NCCLS); format: cell-based
[8] = system: E. faecalis 29212; assay: MIC, broth microdilution (NCCLS); format: cell-based; conditions: Enterococcus faecalis, read-out: MIC against E. faecalis 29212
Experimental: as §1

[9] = system: 209 diverse clinical isolates of C. difficile; assay: MIC, CLSI agar dilution, clinical isolates; format: cell-based, Clostridium difficile; conditions: Clostridioides difficile, 209 clinical isolates of C. difficile
[10] = system: C. difficile strain NC13366; format: cell-based
[11] = A798, read-out: MIC S. aureus A798
[12] = A798, in the absence of human serum, read-out: MIC against S. aureus A798
[13] = A798, in the presence of human alkaline phosphatase (1 U/mL), read-out: MIC against S. aureus A798
[14] = A798, phosphatase absent, read-out: MIC against S. aureus A798

O=C(O)c1cn(C2CC2)c2cc(N3CCC(O)(COc4ccc(N5C[C@H](CO)OC5=O)cc4F)C3)c(F)cc2c1=O (mixture of isomers) [Example 6, 1-cyclopropyl-6-fluoro-7-{(RS)-3-[2-fluoro-4-((R)-5-hydroxymethyl-2-oxo-oxazolidin-3-yl)-phenoxymethyl]-3-hydroxy-pyrrolidin-1-yl}-4-oxo-1,4-dihydro-quinoline-3-carboxylic acid]
MIC [1, 11]: 1 µg/mL
MIC [2]: 0.5 µg/mL
MIC [3]: 0.125 µg/mL
MIC [4]: 0.25 µg/mL
MIC [5]: 0.25 µg/mL

O=C(O)c1cn(C2CC2)c2cc(N3CCC(COc4ccc(N5C[C@H](CO)OC5=O)cc4F)C3)c(F)cc2c1=O (mixture of isomers) [Example 8, 1-cyclopropyl-6-fluoro-7-{(RS)-3-[2-fluoro-4-((R)-5-hydroxymethyl-2-oxo-oxazolidin-3-yl)-phenoxymethyl]-pyrrolidin-1-yl}-4-oxo-1,4-dihydro-quinoline-3-carboxylic acid]
MIC [1, 11]: 0.125 µg/mL

COc1c(N2CCC(COc3ccc(N4C[C@H](CO)OC4=O)cc3F)C2)c(F)cc2c(=O)c(C(=O)O)cn(C3CC3)c12 (mixture of isomers) [Example 9, 1-cyclopropyl-6-fluoro-7-{(RS)-3-[2-fluoro-4-((R)-5-hydroxymethyl-2-oxo-oxazolidin-3-yl)-phenoxymethyl]-pyrrolidin-1-yl}-8-methoxy-4-oxo-1,4-dihydro-quinoline-3-carboxylic acid]
MIC [1, 11]: 1 µg/mL

COc1c(N2CCC(O)(COc3ccc(N4C[C@H](CO)OC4=O)cc3F)C2)c(F)cc2c(=O)c(C(=O)O)cn(C3CC3)c12 (mixture of isomers) [Example 7, 1-cyclopropyl-6-fluoro-7-{(RS)-3-[2-fluoro-4-((R)—S-hydroxymethyl-2-oxo-oxazolidin-3-yl)-phenoxymethyl]-3-hydroxy-pyrrolidin-1-yl}-8-methoxy-4-oxo-1,4-dihydro-quinoline-3-carboxylic acid]
MIC S. Pneumoniae 49619 [6]: 0.25 µg/mL (≈ 0.416 µM)
MIC S. aureus A798 [1]: 1 µg/mL (≈ 1.66 µM)
MIC M. catarrhalis A894 [7]: 0.063 µg/mL (≈ 0.105 µM)

O=C(O)c1cn(C2CC2)c2cc(N3CCC(COc4ccc(N5C[C@H](CO)OC5=O)cc4F)CC3)c(F)cc2c1=O [Example 2, 1-cyclopropyl-6-fluoro-7-{4-[2-fluoro-4-((R)-5-hydroxymethyl-2-oxo-oxazolidin-3-yl)-phenoxymethyl]-piperidin-1-yl}-4-oxo-1,4-dihydro-quinoline-3-carboxylic acid]
MIC [1, 11]: 0.25 µg/mL (≈ 0.439 µM)

O=C(O)c1cn(C2CC2)c2nc(N3CCC(O)(COc4ccc(N5C[C@H](CO)OC5=O)cc4F)CC3)c(F)cc2c1=O [Example 3, 1-cyclopropyl-6-fluoro-7-[4-[2-fluoro-4-((R)-5-hydroxymethyl-2-oxo-oxazolidin-3-yl)-phenoxymethyl]-4-hydroxy-piperidin-1-yl]-4-oxo-1,4-dihydro-[1,8]naphthyridine-3-carboxylic acid]
MIC [1, 11]: 0.25 µg/mL (≈ 0.426 µM)
MIC ([7]; Moraxella catarrhalis, A894): 0.5 µg/mL (≈ 0.852 µM)

C[C@H](N)C(=O)OC[C@H]1CN(c2ccc(OCC3(O)CCN(c4cc5c(cc4F)c(=O)c(C(=O)O)cn5C4CC4)CC3)c(F)c2)C(=O)O1.Cl [Example 4, 7-(4-{-4-[(R)-5-((S)-2-amino-propionyloxymethyl)-2-oxo-oxazolidin-3-yl]-2-fluoro-phenoxymethyl}-4-hydroxy-piperidin-1-yl)-1-cyclopropyl-6-fluoro-4-oxo-1,4-dihydro-quinoline-3-carboxylic acid hydrochloride]
MIC [1, 12]: 0.5 µg/mL

O=C(O)c1cn(C2CC2)c2cc(N3CCC(O)(COc4ccc(N5C[C@H](COP(=O)(O)O)OC5=O)cc4F)CC3)c(F)cc2c1=O [Example 5, 1-cyclopropyl-6-fluoro-7-{4-[2-fluoro-4-((R)-2-oxo-5-phosphonooxymethyl-oxazolidin-3-yl)-phenoxymethyl]-4-hydroxy-piperidin-1-yl}-4-oxo-1,4-dihydro-quinoline-3-carboxylic acid]
MIC [1, 13]: 0.25 µg/mL
MIC [1, 14]: > 16 µg/mL

O=C(O)c1cn(C2CC2)c2cc(N3CCC(COc4ccc(N5C[C@H](CO)OC5=O)cc4F)(OP(=O)(O)O)CC3)c(F)cc2c1=O [Example 10, 1-cyclopropyl-6-fluoro-7-{4-[2-fluoro-4-((R)-5-hydroxymethyl-2-oxo-oxazolidin-3-yl)-phenoxymethyl]-4-phosphonooxy-piperidin-1-yl}-4-oxo-1,4-dihydro-quinoline-3-carboxylic acid]
MIC [1, 13]: 0.5 µg/mL
MIC [1, 14]: 16 µg/mL (≈ 24 µM)

CCn1cc(C(=O)O)c(=O)c2cc(F)c(N3CCC(COc4ccc(N5C[C@H](CO)OC5=O)cc4F)CC3)cc21 [Example 11, 1-ethyl-6-fluoro-7-{4-[2-fluoro-4-((R)-5-hydroxymethyl-2-oxo-oxazolidin-3-yl)-phenoxymethyl]-piperidin-1-yl}-4-oxo-1,4-dihydro-quinoline-3-carboxylic acid]
MIC [8]: 8 µg/mL (≈ 14.3 µM)
MIC [1, 11]: > 16 µg/mL

C[C@H](N)C(=O)OC[C@H]1CN(c2ccc(OCC3CCN(c4cc5c(cc4F)c(=O)c(C(=O)O)cn5C4CC4)CC3)c(F)c2)C(=O)O1.Cl [Example 12, 7-(4-{4-[(R)-5-((S)-2-amino-propionyloxymethyl)-2-oxo-oxazolidin-3-yl]-2-fluoro-phenoxymethyl}-piperidin-1-yl)-1-cyclopropyl-6-fluoro-4-oxo-1,4-dihydro-quinoline-3-carboxylic acid hydrochloride]
MIC [1, 12]: 0.5 µg/mL

O=C(O)c1c[nH]c2cc(N3CCC(O)(COc4ccc(N5C[C@H](CO)OC5=O)cc4F)CC3)c(F)cc2c1=O [Example 13, 6-fluoro-7-{4-[2-fluoro-4-((R)-5-hydroxymethyl-2-oxo-oxazolidin-3-yl)-phenoxymethyl]-4-hydroxy-piperidin-1-yl}-4-oxo-1,4-dihydro-quinoline-3-carboxylic acid]
MIC [1, 11]: 2 µg/mL (≈ 3.67 µM)

O=C(O)c1c[nH]c2nc(N3CCC(O)(COc4ccc(N5C[C@H](CO)OC5=O)cc4F)CC3)c(F)cc2c1=O [Example 14, 6-fluoro-7-{4-[2-fluoro-4-((R)-5-hydroxymethyl-2-oxo-oxazolidin-3-yl)-phenoxymethyl]-4-hydroxy-piperidin-1-yl}-4-oxo-1,4-dihydro-[1,8]naphthyridine-3-carboxylic acid]
MIC [1, 11]: 4 µg/mL (≈ 7.32 µM)

Cc1ncc([N+](=O)[O-])n1CCO [metronidazole]
MIC90 [9]: 1 µg/mL (≈ 5.84 µM)
de novo toxin A production in supernatants ([10]; 1 and 8 μg/mL, day 5 vs day 1, high density stationary phase cultures): did not inhibit toxin A production under these conditions or did so only weakly

CN[C@H](CC(C)C)C(=O)N[C@H]1C(=O)N[C@@H](CC(N)=O)C(=O)N[C@H]2C(=O)N[C@H]3C(=O)N[C@H](C(=O)N[C@H](C(=O)O)c4cc(O)cc(O)c4-c4cc3ccc4O)[C@H](O)c3ccc(c(Cl)c3)Oc3cc2cc(c3O[C@@H]2O[C@H](CO)[C@@H](O)[C@H](O)[C@H]2O[C@H]2C[C@](C)(N)[C@H](O)[C@H](C)O2)Oc2ccc(cc2Cl)[C@H]1O [vancomycin]
de novo toxin A production in supernatants [10]: did not inhibit toxin A production under these conditions or did so only weakly
